# Test results reported in patent publication US9957214B2, “Multifunctional radical quenchers” (ARIZONA BOARD OF REGENTS ON BEHALF OF ARIZONA STATE …, priority 2012, dated 2018).
# Columns and labels:
# [1] = Lipid peroxidation induced by AAPH peroxyl radicals in phospholipid liposomes (C11-BODIPY581/591 fluorescence); conditions: 10 mM AAPH, phosphate buffer, 40° C.; compared with tocopherol
# Experimental: FIG. 4. Effect of nitrogen-containing 3-alkyl-1,4-benzoquinone derivatives on lipid peroxidation induced by peroxyl radicals generated from thermal decomposition of AAPH in phospholipid liposomes in phosphate buffer at 40° C. […] Relative fluorescence units are normalized to 100% intensity.
# Several methods for assaying lipid peroxidation in vitro have been developed (Kuypers et al. (1987) Biochim Biophys Acta. 25, 266-274; Pap et al. (1999) FEBS Lett. 453, 278-282; Drummen et al. (2002) Free RadicBiol Med. 33, 473-490). Almost all of these methods are based on inhibition of free radical-induced oxidation reactions. A widely used fluorescence assay for lipid peroxidation uses lipid soluble cis-parinaric acid as a probe. cis-parinaric acid loses its fluorescence (λexc/em: 320/432 nm) upon interaction with peroxyl radicals and retains its fluorescence in the presence of radical quenchers. cis-parinaric acid is, however, air sensitive, photolabile and absorbs light in the UV region of the spectrum (at ˜320 nm). […] C11-BODIPY^581/591 (Molecular Probes, Eugene, Oreg., USA) stock solution concentrations were determined by measuring the absorption of C11-BODIPY^581/591 at 582 nm using a molar extinction coefficient of 140,000 mol^−1 cm^−1 (R. P. Haugland, (1999) Handbook of Fluorescent Probes and Research Chemicals, Molecular Probes, Inc., Eugene, Oreg.). […]
# [2] = system: BT474 cell line and FRDA lymphocytes; experiment: Cytotoxicity assay (WST-1); type: cell-based, human; conditions: 48 h, varying concentrations
# Experimental: FIG. 5. Effect of compound 40 and geldanamycin on cell viability was compared to vehicle (DMSO) after treatment with varying concentrations for 48 h in BT474 cell line and FRDA lymphocytes, respectively. Each measurement is an average of three independent experiments run in quartet.
# […] geldanamycin were tested for their cytotoxicity in human breast cancer cell line BT474 and FRDA lymphocytes using the vital mitochondrial function assay WST-1 Kit (Roche Diagnostics). BT474 cells (2000 cell/well) and FRDA lymphocytes (5000 cell/well) (100 μl) were seeded in 96-well plates and incubated for 48 h. Compound 40 or geldanamycin at varying concentrations were added and the plates were returned to the incubator for 48 h. Cell viability was determined using a WST-1 Kit (Roche Diagnostics) following the manufacturer's instructions. WST-1 reagent (10 μL) was added to each well, containing 200 μL media and further incubation for 2 h (BT474) and 4 h (FRDA lymphocytes). Color intensity was measured at 450 nm using a SpectraMax M5 microplate reader (Molecular Devices, Sunnyvale, Calif., USA). Results are expressed as percentage of viable cells relative to untreated control after subtracting background. Data are expressed as means±S.E.M. (n=3).
SMILES,Protection against lipid peroxidation in liposomes (in words) [1],Cytotoxicity (in words) [2]
"CCCCCCCCCCCCCC1=C(OC)C(=O)C=C(NCCCC(=O)OCCCCCC)C1=O [Compound 18, Hexyl 4-(4-methoxy-3,6-dioxo-5-tridecylcyclohexa-1,4-dienylamino)butanoate]",significant protection against lipid peroxidation,
COC1=C2CCCCCCCCCCCCCCCNC(=CC1=O)C2=O [Compound 40],,no cytotoxicity
